Laboratory results: patent US4333930A, “Orthoarylideneaminophenethylamines and pharmaceutical compositions” (priority 1980, dated 1982)
Like-named read-outs stand apart in the source and are kept apart here.

Columns and labels:
[1] = Oral toxicity (mortality) in the mouse, Table 1; type: in vivo; details: mouse, in vivo, po, Swiss mice, 14 days
Experimental: (§1) The mortality percentages caused by the products of the present invention administered orally to Swiss mice are shown in Table 1. The animals, free of specific pathological organism were housed in an air conditioned room from 24 to 48 hours before the start of the experiments. They were divided up into lots of 5 males and 5 females. With the animals unfed for 24 hours, the substances were administered intragastrically in a base of 6% gum arabic in a volume equal to 0.1 ml for 10 g of animal weight. The mortality was recorded at 14 days.
(§2) % of mortality as a function of the dose

[2] = test system: Swiss mice; experiment: Oral toxicity (mortality) in the mouse, Table 1; type: in vivo; details: 1000 mg/kg, 14 days, 20160 min
Experimental: as §1, §2

[3] = test system: number of escapes the animal made in 5 minutes; experiment: Escape test, Table 3; type: in vivo, mouse; details: 5 min, read-out: % of activity (variation of the number of escapes)
From the text: The products of the invention were always administered orally in 6% gum base.
The notation NS signifies that the difference between the results noted for the product and the results noted for the excipient alone is not significant at the threshold 0.05 according to the Student t Test.

[4] = test system: phenylbenzoquinone (PBQ); experiment: Analgesic activity using phenylbenzoquinone (PBQ) as noxious agent, Table 2; type: in vivo, male Swiss mouse; details: Mus musculus
Experimental: The analgesic activity was determined with the male Swiss mouse using phenylbenzoquinone (PBQ) (a variation of the method of Siegmund et al, Proc. Soc. Exp. Med., […], 95, 729-31) as the noxious agent. Twenty-eightminutes after having administered the test products in a suspension in a 6% gum base, the PBQ solution was injected. The mice were then observed ca. 5 mn. for the next five minutes.
% of analgesic activity as a function of
the dose expressed in mg/kg

[5] = test system: ptosis induced by reserpine; experiment: Antagonism of ptosis induced by reserpine, Table 6; type: in vivo; details: read-out: % of inhibition of ptosis induced by reserpine
From the text: (§3) The psychotropic profile of the present invention products has been characterized with the animals in numerous tests some of whose results are shown hereinafter. The products of the invention were always administered orally in 6% gum base.
(§4) Certain tests made it possible to show antidepressive activities. These are tests of antagonism to the effects of reserpine, oxotremorine (according to Everett G. M. et al, Science, 1956, 124, 79 and Levy J. et al, Therapie 1965, 20, 265) and to despair (according to Porsolt P. D. et al, Eur. J. Pharmacol., 1978, 47, 379-91).
% of inhibition of ptosis induced by reserpine
as a function of the dose administered orally

[6] = test system: number of displacements of the animal; experiment: Four plates test (anxiolytic activity), Table 5; type: in vivo; details: oral, mouse
From the text: as §3
A certain number of products manifest an anxiolytic activity evidenced in the test with the four plates with the mouse (Table 5).
% of increase in the number of displacements of the
animal as a function of the dose expressed in mg/kg

[7] = test system: trembling induced by oxotremorine; experiment: Antagonism of trembling induced by oxotremorine, Table 7; type: in vivo; details: oral, read-out: % of inhibition of trembling induced by oxotremorine
From the text: as §3, §4
% of inhibition of trembling induced by
oxotremorine as a function of the dose
administered expressed in mg/kg

[8] = read-out: % of analgesic activity, 100 mg/kg, male Swiss mouse, PBQ
[9] = read-out: % of analgesic activity, 200 mg/kg, male Swiss mouse, PBQ
[10] = 50 mg/kg, oral, mouse, 5 minutes
[11] = 100 mg/kg, male Swiss mouse, PBQ, read-out: % of analgesic activity
[12] = 200 mg/kg, male Swiss mouse, PBQ, read-out: % of analgesic activity

**Q.** With `CN(C)CCc1ccccc1N=CC=Cc1ccccc1` [COR 01 185, N-cinnamylidene 2-(2-N,N,-dimethylaminoethyl)aniline] as the compound, how does the mortality at 336 h ([1]; 1500 mg/kg) read?
**A.** 0%

**Q.** What about the mortality at 336 h ([1]; 2000 mg/kg) of the same compound?
**A.** 100%

**Q.** What does the source list for `C(=Nc1cc2c(cc1CCN1CCCC1)OCO2)c1cccnc1` [COR 01 186]?
**A.** % of mortality [2]: 40%; mortality at 336 h ([1]; 750 mg/kg): 0%; mortality at 336 h ([1]; 1500 mg/kg): 50%

**Q.** Which results are given for `CC(C)(C)NCCc1cc2c(cc1N=Cc1cccnc1)OCO2` [COR 01 195]?
**A.** change in vivo at 3 mg/kg ([3]; Mus musculus, po): 54%; change in vivo at 5 mg/kg ([3]; Mus musculus, po): 53%; change in vivo at 50 mg/kg ([3]; Mus musculus, po): 19%; change in vivo at 100 mg/kg ([3]; Mus musculus, po): 28%; inhibition in vivo at 100 mg/kg [4, 8]: 24%; inhibition in vivo at 200 mg/kg [4, 9]: 31%; change in vivo at 50 mg/kg ([5]; po): -22%; change in vivo at 100 mg/kg ([5]; po): -22%; mortality at 336 h ([1]; 1000 mg/kg): 0%; mortality at 336 h ([1]; 1500 mg/kg): 20%; mortality at 336 h ([1]; 2000 mg/kg): 30%

**Q.** For `C(=Cc1ccccc1)C=Nc1cc2c(cc1CCN1CCCC1)OCO2` [COR 01 200], which “% of increase in the number of displacements of the animal” value (“% of increase” for short) ([6]; 5 mg/kg) is on record?
**A.** +112%

**Q.** What about the “% of increase” value ([6]; 10 mg/kg) of the same compound?
**A.** +180%

**Q.** What about the “% of increase” value ([6]; 20 mg/kg) of the same compound?
**A.** +292%

**Q.** And the “% of increase” value ([6]; 25 mg/kg)?
**A.** +142%

**Q.** And the “% of increase” value ([6]; 50 mg/kg)?
**A.** +84%

**Q.** What about the change in vivo at 10 mg/kg ([3]; 10 mg/kg, oral, mouse, 5 minutes) of the same compound?
**A.** 25%

**Q.** And the change in vivo at 50 mg/kg [3, 10]?
**A.** 38%

**Q.** And the change in vivo at 25 mg/kg ([5]; 25 mg/kg, oral)?
**A.** -28%

**Q.** What about the change in vivo at 100 mg/kg ([5]; 100 mg/kg, oral) of the same compound?
**A.** -24%

**Q.** What about the mortality at 336 h ([1]; 750 mg/kg) of the same compound?
**A.** 0%

**Q.** What about the mortality at 336 h ([1]; 1000 mg/kg) of the same compound?
**A.** 10%

**Q.** And the mortality at 336 h ([1]; 1500 mg/kg)?
**A.** 70%

**Q.** Which “% of mortality” value [2] does the source give for `CN(C)CCc1cc2c(cc1N=Cc1cccnc1)OCO2` [COR 01 201, 6-dimethylaminoethyl N-(pyridylidene-3)-1,3-benzodioxole-5-ylamine] here?
**A.** 10%

**Q.** What about the mortality at 336 h ([1]; 2000 mg/kg) of the same compound?
**A.** 30%

**Q.** For `C(=Nc1cc2c(cc1CCN1CCOCC1)OCO2)c1cccnc1` [COR 01 204], which change in vivo at 5 mg/kg ([3]; 5 mg/kg, oral, mouse, 5 minutes) is on record?
**A.** -28%

**Q.** What about the change in vivo at 25 mg/kg ([3]; 25 mg/kg, oral, mouse, 5 minutes) of the same compound?
**A.** -31%

**Q.** What about the change in vivo at 50 mg/kg [3, 10] of the same compound?
**A.** -24%

**Q.** What about the change in vivo at 75 mg/kg ([3]; 75 mg/kg, oral, mouse, 5 minutes) of the same compound?
**A.** -20%

**Q.** What about the change in vivo at 100 mg/kg ([3]; 100 mg/kg, oral, mouse, 5 minutes) of the same compound?
**A.** -15%

**Q.** And the change in vivo at 200 mg/kg ([3]; oral, mouse, 5 minutes)?
**A.** -24%

**Q.** And the inhibition in vivo at 50 mg/kg ([4]; 50 mg/kg, male Swiss mouse, PBQ, read-out: % of analgesic activity)?
**A.** 0%

**Q.** And the inhibition in vivo at 100 mg/kg [4, 11]?
**A.** 45%

**Q.** And the inhibition in vivo at 200 mg/kg [4, 12]?
**A.** 42%

**Q.** And the change in vivo at 50 mg/kg [7]?
**A.** -30%

**Q.** And the change in vivo at 100 mg/kg [7]?
**A.** -20%

**Q.** And the change in vivo at 200 mg/kg [7]?
**A.** -30%

**Q.** And the mortality at 336 h ([1]; 1500 mg/kg)?
**A.** 0%

**Q.** What about the mortality at 336 h ([1]; 2000 mg/kg) of the same compound?
**A.** 10%

**Q.** With `CN1CCN(CCc2ccccc2N=Cc2cccnc2)CC1` [COR 01 205] as the compound, how does the change in vivo at 200 mg/kg ([3]; oral, mouse, 5 minutes) read?
**A.** -34%

**Q.** And the inhibition in vivo at 100 mg/kg [4, 11]?
**A.** 10%

**Q.** What about the inhibition in vivo at 200 mg/kg [4, 12] of the same compound?
**A.** 36%

**Q.** And the change in vivo at 50 mg/kg [7]?
**A.** -30%

**Q.** And the change in vivo at 100 mg/kg [7]?
**A.** -30%

**Q.** And the change in vivo at 200 mg/kg [7]?
**A.** -40%

**Q.** And the change in vivo at 50 mg/kg ([5]; 50 mg/kg, oral)?
**A.** -31%

**Q.** And the change in vivo at 100 mg/kg ([5]; 100 mg/kg, oral)?
**A.** -25%

**Q.** And the change in vivo at 200 mg/kg ([5]; 200 mg/kg, oral)?
**A.** -31%

**Q.** What about the mortality at 336 h ([1]; 1000 mg/kg) of the same compound?
**A.** 0%

**Q.** What about the mortality at 336 h ([1]; 1500 mg/kg) of the same compound?
**A.** 10%

**Q.** And the mortality at 336 h ([1]; 2000 mg/kg)?
**A.** 10%

**Q.** What does the source list for `CN(C)CCc1cc2c(cc1N=Cc1ccc(Cl)c(Cl)c1)OCO2` [COR 01 207]?
**A.** mortality at 336 h ([1]; 750 mg/kg): 0%; mortality at 336 h ([1]; 1000 mg/kg): 20%; mortality at 336 h ([1]; 1500 mg/kg): 20%; mortality at 336 h ([1]; 2000 mg/kg): 40%

**Q.** For `CN(C)CCc1cc2c(cc1N=Cc1ccc(Cl)cc1)OCO2` [COR 01 208], which mortality at 336 h ([1]; 500 mg/kg) is on record?
**A.** 0%

**Q.** And the mortality at 336 h ([1]; 750 mg/kg)?
**A.** 30%

**Q.** And the mortality at 336 h ([1]; 1000 mg/kg)?
**A.** 20%

**Q.** What about the mortality at 336 h ([1]; 1500 mg/kg) of the same compound?
**A.** 20%

**Q.** What about the mortality at 336 h ([1]; 2000 mg/kg) of the same compound?
**A.** 80%

**Q.** With `CC(Cc1ccccc1N=Cc1cccnc1)N(C)C` (stereo not shown) [COR 01 214, 2-(2-N,N-dimethylamino-2-methylethyl)-N-pyridylidene-3 aniline] as the compound, how does the inhibition in vivo at 100 mg/kg [4, 8] read?
**A.** 21%

**Q.** And the inhibition in vivo at 200 mg/kg [4, 9]?
**A.** 30%

**Q.** And the mortality at 336 h ([1]; 1000 mg/kg)?
**A.** 0%

**Q.** What about the mortality at 336 h ([1]; 1500 mg/kg) of the same compound?
**A.** 30%

**Q.** And the mortality at 336 h ([1]; 2000 mg/kg)?
**A.** 70%
